# According to patent publication US6623735B1, “Vaccine containing a thiol protease” (priority 1992, dated 2003):
# Starred links: 1 amine or outer side, 2 acyl side, 3 side chain; linkers in the order of their positions; H or OH if unused. Residues, ends and D or L forms follow the SMILES beside them. *: point of attachment. AMC = Cc1cc(=O)oc2cc(N*)ccc12; Suc = O=C(CCC(=O)[*:2])[*:1]; Tos = Cc1ccc(S(=O)(=O)*)cc1; Cbz = O=C(OCc1ccccc1)*; Boc = CC(C)(C)OC(=O)*; Bz = O=C(c1ccccc1)*
# Key:
# F. hepatica cathepsin L2 = experiment: Enzyme kinetic studies, cathepsin L2; format: biochemical, Fasciola hepatica; details: 0.1M glycine pH 7.0, 37° C.
# Description: (§1) The kinetic constants of F. hepatica cathepsins L1 and L2 enzymes were determined for 11 different substrates: Z-Phe-Arg-AMC, Bz-Phe-Val-Arg-AMC, Suc-Leu-Leu-Val-Tyr-AMC, H-Leu-Val-Tyr-AMC, Tos-Gly-Pro-Lys-AMC, Tos-Gly-Pro-Arg-AMC, Boc-Val-Pro-Arg-AMC, Z-Arg-Arg-AMC, Z-Arg-AMC, Suc-Ala-Phe-Lys-AMC and Boc-Val-Leu-Lys-AMC. One mg of fluorogenic substrate was dissolved in 100 μl of dimethyl formamide. This stock solution was diluted in 0.1M glycine pH 7.0 to achieve the desired concentration of substrate. Each substrate concentration was in triplicate and the final assay volume was 1.0 ml. Included in the 1 ml aliquot was 20 μl of enzyme and 50 μl of 10 mM dithiothreitol. The samples were incubated at 37° C. for 30 min before stopping the reaction with the addition of 200 μl of 1.7 M acetic acid. The samples were assayed for released 7-amino-methyl-coumarin as above. The kinetic constants Vmax and Km were obtained by non-linear regression according to the method of Barrett et al (Biochem J. 201, p.189-198) except that 20 μl of cathepsin L2 was incubated with 20 μl of 1.0 μM-0.1 μM E-64 in a final volume of 80 μl 0.1M glycine pH 7.0 for 30 mins at 37° C. Twenty μl of 1/10 cathepsin L1 was incubated with 20 μl of 5 μM-0.5 μM E-64 in a final volume of 80 μl 0.1M glycine pH 7.0 for 30 min. at 37° C. All of the incubated sample was assayed for the fluorogenic substrate Z-Phe-Arg-AMC as above.
# F. hepatica cathepsin L1 = experiment: Enzyme kinetic studies, cathepsin L1; format: biochemical, Fasciola hepatica; details: 0.1M glycine pH 7.0, 37° C.
# Description: as §1
# [1] = system: E/S products from mature F. hepatica; experiment: Specific activity against fluorogenic substrates by E/S products, adult flukes; format: biochemical, Fasciola hepatica; details: E/S products of adult flukes; means of duplicate results
# Description: (§2) Mature flukes were removed from the bile ducts of bovine livers obtained at an abbattoir. Immature parasites were obtained from the liver of male Wistar rats three and five weeks after infection with 20 metacercariae.
# (§3) Newly excysted juvenile (NEJ), 3 week-old, 5 week-old and mature F. hepatica were maintained in vitro over a period of 3 days. The culture medium, removed daily, was then assayed for Cathepsin L-like activity using the fluorogenic substrate Z-phe-arg-AMC. Cathepsin L-like activity was present in the E/S products from all stages examined. Whilst the Cathepsin L-like activity increased on a daily basis in the NEJ E/S products, indicating an increase in its secretion with time, the activity of this proteinase in the EIS of all other stages decreased over the same time period. The proteinase activity in the E/S of each liver fluke stage was compared using three arginine-containing fluorogenic peptide substrates. These substrates were chosen on the basis of their affinity for lysosomal cathepsin enzymes; cathepsin L (Z-phe-arg-AMC), cathepsin B (Z-arg-arg-AMC) and cathepsin H (Z-arg-AMC). Significant activity was only detected using the Z-phe-arg-AMC substrate and similar results were obtained for all liver fluke stages examined (Table 2 below).
# [2] = system: E/S products from 3 week-old F. hepatica; experiment: Specific activity against fluorogenic substrates by E/S products, 3 week-old flukes; format: biochemical, Fasciola hepatica; details: E/S products of 3 week-old flukes; means of duplicate results
# Description: as §2, §3
# [3] = system: E/S products from 5 week-old F. hepatica; experiment: Specific activity against fluorogenic substrates by E/S products, 5 week-old flukes; format: biochemical, Fasciola hepatica; details: E/S products of 5 week-old flukes; means of duplicate results
# Description: as §2, §3
# [4] = system: E/S products from newly excysted juvenile (NEJ) F. hepatica; experiment: Specific activity against fluorogenic substrates by E/S products, NEJ; format: biochemical, Fasciola hepatica; details: E/S products of NEJ; means of duplicate results
# Description: F. hepatica metacercariae (Pfizer strain) encysted on cellophane were removed with a Pasteur pipette into 2% sodium hypochlorite, vortexed and incubated for 30 minutes at 37° C. This procedure removes the outer cyst of the metacercariae. The metacercariae, now only with the inner transparent cyst, were placed into microtitre wells with an automatic pipette using a stereomicroscope and washed in distilled water. They were then incubated in a medium prepared by mixing equal volumes of 0.05M HCl with a solution containing 1% sodium bicarbonate, 0.8% NaCl and 0.2% sodium taurocholate. After 3 hours at 37° C. 70-80% of the flukes were excysted and actively moving. The excysted juveniles were separated from the inner cysts using a 20 μl automatic pipette under a stereomicroscope.
# as §3
# [5] = system: IgG cleaving activity of the E/S products from NEJ flukes; experiment: Inhibition of IgG cleaving activity of NEJ E/S products; format: biochemical, Fasciola hepatica; details: final concentration of 50 μM
# Description: (§4) As IgG is involved in antibody-dependent cellular cytotoxicity against helminth parasites and since adult fluke Cathepsin-L1 cleaves mouse IgG2a [see above], the E/S products from NEJ, 3 week-old, 5 week-old and adult flukes were tested for antibody cleaving activity. E/S products from all F. hepatica stages examined were capable of cleaving the purified IgG at the hinge region of the heavy chain and thereby releasing the Fc portion from the antibody binding regions.
# [6] = system: IgG cleaving activity of the E/S products from adult flukes; experiment: Inhibition of IgG cleaving activity of adult fluke E/S products; format: biochemical, Fasciola hepatica; details: final concentration of 50 μM
# Description: as §4
# [7] = system: antibody-mediated attachment of eosinophils to NEJ; experiment: Eosinophil adherence to NEJ in vitro assay; format: cell-based, rat
# Description: Twenty newly excysted juvenile F. hepatica were dispensed into 100 μl of rat eosinophil-rich suspension in microtitre wells. According to the experiment either 100 μl aliquots of immune serum or control serum were added with or without E/S products or purified Cathepsin L1. The cysteine proteinase inhibitor leupeptin was added in some experiments at a final concentration of 5 μg/ml. All dilutions were made in Roswell Park Memorial Institute 1640 with 4% heat inactivated fetal calf serum. At the end of the experiment juvenile flukes were carefully transferred to a microscope slide and examined microscopically at 40× and 100× magnifications. Individual flukes were examined and the number of bound eosinophils counted. Those NEJ with more than 20 cells attached were considered positive.
# When rat eosinophil-rich cell populations were added to NEJ in the presence of immune rat serum (IRS obtained from female Wistar rats orally infected with 30 F. hepatica metacercariae; blood was taken after 5 weeks of infection; the sera obtained were pooled, aliquoted and stored at −20° C. until required; control serum was collected from uninfected rats), cell adherence was consistently high (>90% positive NEJ after 2 hours, FIG. 4, panel A; the scale along the base of the Figure represents percentage of positive NEJ as defined above; the 5 bars represent counts at 2 hour intervals). […]
# NEJ = system: NEJ; parameters: species or system Fasciola hepatica; details: added to NEJ in culture; data not shown
SMILES,Kcat (F. hepatica cathepsin L2) [s⁻¹],Km (F. hepatica cathepsin L2) [µM],Kcat (F. hepatica cathepsin L1) [s⁻¹],Km (F. hepatica cathepsin L1) [µM],"Specific activity against fluorogenic substrates, Adults [1] [μmol AMC/min/Mg]","Specific activity against fluorogenic substrates, 3 weeks [2] [μmol AMC/min/Mg]","Specific activity against fluorogenic substrates, 5 weeks [3] [μmol AMC/min/Mg]","Specific activity against fluorogenic substrates, NEJ [4] [μmol AMC/min/Mg]",inhibition of IgG cleaving activity [5],inhibition of IgG cleaving activity [6],"effect on action of E/S products and Cathepsin L1 on eosinophil attachment ([7]; 5 μg/ml, with immune serum and NEJ or mature fluke E/S products or purified Cathepsin L1)","rate at which eosinophils are lost from the NEJ surface ([7]; in the presence of immune serum, FIG. 4 panel I)",viability of NEJ (NEJ)
Cc1cc(=O)oc2cc(NC(=O)[C@H](CCCCN)NC(=O)[C@H](CC(C)C)NC(=O)[C@@H](NC(=O)OC(C)(C)C)C(C)C)ccc12 [Boc-Val-Leu-Lys-AMC] (Boc-Val-Leu-Lys-{AMC}),3.75,7.34,7.90,34.7,–,–,–,–,–,–,–,–,–
Cc1cc(=O)oc2cc(NC(=O)[C@H](CCCN=C(N)N)NC(=O)[C@@H]3CCCN3C(=O)[C@@H](NC(=O)OC(C)(C)C)C(C)C)ccc12 [Boc-Val-Pro-Arg-AMC] (Boc-Val-Pro-Arg-{AMC}),1.19,24.8,0.02,43.6,–,–,–,–,–,–,–,–,–
Cc1cc(=O)oc2cc(NC(=O)[C@H](CCCN=C(N)N)NC(=O)[C@@H](NC(=O)[C@H](Cc3ccccc3)NC(=O)c3ccccc3)C(C)C)ccc12 [Bz-Phe-Val-Arg-AMC] (Bz-Phe-Val-Arg-{AMC}),0.06,1.2,0.03,9.25,–,–,–,–,–,–,–,–,–
Cc1cc(=O)oc2cc(NC(=O)[C@H](Cc3ccc(O)cc3)NC(=O)[C@@H](NC(=O)[C@@H](N)CC(C)C)C(C)C)ccc12 [H-Leu-Val-Tyr-AMC] (H-Leu-Val-Tyr-{AMC}),0.21,3.75,0.02,5.4,–,–,–,–,–,–,–,–,–
Cc1cc(=O)oc2cc(NC(=O)[C@H](CCCCN)NC(=O)[C@H](Cc3ccccc3)NC(=O)[C@H](C)NC(=O)CCC(=O)O)ccc12 [Suc-Ala-Phe-Lys-AMC] (Suc-Ala-Phe-Lys-{AMC}),0.14,41.1,0.05,65.3,–,–,–,–,–,–,–,–,–
Cc1cc(=O)oc2cc(NC(=O)[C@H](Cc3ccc(O)cc3)NC(=O)[C@@H](NC(=O)[C@H](CC(C)C)NC(=O)[C@H](CC(C)C)NC(=O)CCC(=O)O)C(C)C)ccc12 [Suc-Leu-Leu-Val-Tyr-AMC] (Suc-LLVY-{AMC}),0.08,23.3,0.01,38.5,–,–,–,–,–,–,–,–,–
Cc1ccc(S(=O)(=O)NCC(=O)N2CCC[C@H]2C(=O)N[C@@H](CCCNC(=N)N)C(=O)Nc2ccc3c(C)cc(=O)oc3c2)cc1 [Tos-Gly-Pro-Arg-AMC] (Tos-Gly-Pro-Arg-{AMC}),1.93,17.1,0.03,26,–,–,–,–,–,–,–,–,–
Cc1ccc(S(=O)(=O)NCC(=O)N2CCC[C@H]2C(=O)N[C@@H](CCCCN)C(=O)Nc2ccc3c(C)cc(=O)oc3c2)cc1 [Tos-Gly-Pro-Lys-AMC] (Tos-Gly-Pro-Lys-{AMC}),1.37,35.5,0.03,107,–,–,–,–,–,–,–,–,–
Cc1cc(=O)oc2cc(NC(=O)[C@H](CCCN=C(N)N)NC(=O)OCc3ccccc3)ccc12 [Z-Arg-AMC],0.09,14.1,0.04,20.4,63,3,5,1,–,–,–,–,–
Cc1cc(=O)oc2cc(NC(=O)[C@H](CCCN=C(N)N)NC(=O)[C@H](CCCN=C(N)N)NC(=O)OCc3ccccc3)ccc12 [Z-Arg-Arg-AMC] (Cbz-Arg-Arg-{AMC}),0.02,9.07,0.002,65.6,21,0,2,0,–,–,–,–,–
"Cc1cc(=O)oc2cc(NC(=O)[C@H](CCCNC(=N)N)NC(=O)[C@H](Cc3ccccc3)NC(=O)OCc3ccccc3)ccc12 [Z-Phe-Arg-AMC, benzyloxycarbonyl-L-phenylalanyl-L-arginyl-7-amido-4-methyl coumarin] (Cbz-Phe-Arg-{AMC})",0.56,3.76,1.08,14.7,1254,29,90,25,–,–,–,–,–
C[C@H](NC(=O)[C@H](Cc1ccccc1)NC(=O)OCc1ccccc1)C(=O)C=[N+]=[N-] [Z-phe-ala-CHN2],–,–,–,–,–,–,–,–,completely inhibited,completely inhibited,–,–,–
CC(=O)N[C@@H](CC(C)C)C(=O)N[C@@H](CC(C)C)C(=O)N[C@H](C=O)CCCNC(=N)N [leupeptin],–,–,–,–,–,–,–,–,–,–,inhibits the effect of the E/S products and Cathepsin L1,slightly reduces,did not affect their viability
